Source: patent publication US20250042891A1, “Compound containing structure of a heteroaromatic ring, pharmaceutical composition thereof and application thereof” (SHANGHAI YINGLI PHARMACEUTICAL CO., LTD, priority 2023, published 2025)

Columns and labels:
HCC1395 = experiment: CTG assay for proliferation inhibition of cell lines; format: cell-based; details: HCC1395, 7 days, CellTiter Glo
Experimental: (§1) The assay was conducted on either 384-well plates or 96-well plates. The procedures are as follows:
(§2) The cell suspensions were added to 384- or 96-well plates (384-well plate: 50 μL; 96-well plate: 100 μL) except for peripheral wells. The plates were incubated in a carbon dioxide incubator overnight, HCC1395, HCC1428 and NCI-H460 were placed in a carbon dioxide incubator of 5%, […] overnight. Prepared compounds (10 concentration gradients by serial 3-fold dilution) were added to the wells using the HPD300 micro-dosing instrument. The cell plates were incubated in a carbon dioxide incubator for 7 days. HCC1395, HCC1428 and NCI-H460 were incubated in a 5%, 37° CO2 incubator. On the day of plate measurement, 384- or 96-well plates were first equilibrated at room temperature for 10-30 minutes, then to the 384- or 96-well plate was added CellTiter Glo reagent (384-well plate: 25 μL; 96-well plate: 100 μL), shaken for 10 minutes away from light, and incubated for 10 minutes. The incubated plates were placed into Victor NIVO reader plates, and the pharmacodynamic inhibition curves were plotted and IC50 values were calculated using XLFit.

NCI-H460 = experiment: as above; format: cell-based; details: NCI-H460, 7 days, CellTiter Glo
Experimental: as §1, §2

HCC1428 = experiment: as above; format: cell-based; details: HCC1428, 7 days, CellTiter Glo
Experimental: as §1, §2

PARG (389-976) = PARG (389-976) (Homo sapiens (Human), UniProt Q86W56); experiment: PARG enzyme inhibition assay (TR-FRET); format: biochemical
Experimental: PARG in vitro assays were conducted in standard 384-well plates in a total volume of 15 μL. 5 μL of PARG (389-976) (manufactured by Chempartner Chemical Co., Ltd.) in buffer (50 mM Tris-HCL 7.5, 30 mM KCl, 1 mM EDTA, 3 mM DTT, tween-20 0.01%, BSA 0.025%) was added at a final concentration of 1.5 pM to the 384-well plates containing the compounds to be tested, which was incubated for 30 min at room temperature. To the above mixture was added 5 μL Bio PARylated His-TEV-PARP1(2-1014) substrate (manufactured by Chempartner Chemical Co., Ltd.) at a final concentration of 12 nM, after addition, the resulting mixture was incubated for 30 minutes at room temperature. Then to the mixture was added detection reagent (5 μL) which was buffered with 50 mM Tris-HCL 7.5, 30 mM KCl, 1 mM EDTA, 3 mM DTT, tween-20 0.01%, BSA 0.025%, and consisted of 3 μM of compound PDD00017273 and 9 nM Mab anti-6HIS XL665 (Cisbio: 61HISXLA) and 0.9 nM streptavidin affinity terbium cryptate (Cisbio:610SATLA), all at 3× working concentrations (final concentrations of 1 μM, 3 nM and 0.3 nM, respectively). After 120 min incubation in the dark at room temperature, TR-FRET signals were measured at Ex 340 and Em 665 and Em 615. The ratio for each well was calculated as Em 665/Em 615 and the compound inhibition rate was calculated based on the obtained data.

[1] = class symbol, Bio PARylated His-TEV-PARP1 substrate, TR-FRET

Chain of PARG (389-976) (Q86W56 389-976): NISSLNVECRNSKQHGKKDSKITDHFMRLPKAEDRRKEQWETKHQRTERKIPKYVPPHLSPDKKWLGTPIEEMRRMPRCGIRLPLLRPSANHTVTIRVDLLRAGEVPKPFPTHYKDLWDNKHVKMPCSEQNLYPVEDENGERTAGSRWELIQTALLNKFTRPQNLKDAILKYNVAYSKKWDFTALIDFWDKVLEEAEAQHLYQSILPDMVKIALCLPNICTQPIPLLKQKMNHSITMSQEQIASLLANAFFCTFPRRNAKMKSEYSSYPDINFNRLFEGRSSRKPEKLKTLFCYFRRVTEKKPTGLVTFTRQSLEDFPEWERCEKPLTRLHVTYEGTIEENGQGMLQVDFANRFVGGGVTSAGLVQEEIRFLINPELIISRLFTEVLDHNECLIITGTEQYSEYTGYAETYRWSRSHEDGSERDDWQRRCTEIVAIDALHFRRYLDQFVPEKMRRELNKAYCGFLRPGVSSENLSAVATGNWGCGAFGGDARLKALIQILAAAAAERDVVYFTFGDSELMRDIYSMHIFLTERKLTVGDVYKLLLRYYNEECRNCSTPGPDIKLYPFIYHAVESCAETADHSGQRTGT

Compound | IC50 (HCC1395) [µM] | IC50 (NCI-H460) [µM] | IC50 (HCC1428) [µM] | IC50 (PARG (389-976); [1]) [nM] | IC50 (PARG (389-976); numeric value in parentheses under the class symbol) [nM] | IC50 (HCC1395; Homo sapiens, 168 h) [µM] | IC50 (NCI-H460; Homo sapiens, 168 h) [µM]
CN(C)S(=O)(=O)N1CC=C(c2cc(S(=O)(=O)NC3(C#N)CC3)cc3c(-c4nnc(C(F)F)s4)nn(C)c23)CC1 [Compound 32] | 0.177 | 0.21 | 0.232 | 1 to 10 | 1.03 |  | 
CC(C)S(=N)(=O)N1CC=C(c2cc(S(=O)(=O)NC3(C#N)CC3)cc3c(-c4nnc(C(F)F)s4)nn(C)c23)CC1 (stereo not shown) [Compound 33] | 0.691 | 0.5 | 0.616 | < 1 |  |  | 
CC(C)S(=O)(=O)N1CCN(c2cc(S(=O)(=O)NC3(C#N)CC3)cc3c(-c4nnc(C(F)(F)F)s4)nn(C)c23)CC1 [Compound 35] | 0.284 | 0.162 | 0.698 | < 1 |  |  | 
CC(C)S(=O)(=O)N1CCC(c2cc(S(=O)(=O)NC3(C#N)CC3)cc3c(-c4nnc(C(F)F)s4)nn(C)c23)=C(CO)C1 [Compound 36] | 0.127 | 0.0729 | 0.0978 | < 1 |  |  | 
CC(C)S(=O)(=O)N1CCC2(c3cc(S(=O)(=O)NC4(C#N)CC4)cc4c(-c5nnc(C(F)F)s5)nn(C)c34)OC2C1 (stereo not shown) [Compound 38] | 0.432 | 0.366 | 0.4 | < 1 |  |  | 
Cn1nc(-c2nnc(C(F)F)s2)c2cc(S(=O)(=O)NC3(C#N)CC3)cc(C3=CCN(S(=O)(=O)C4CCNCC4)CC3)c21 [Compound 39] | 0.827 | 0.429 | 0.369 | < 1 |  |  | 
CN=S(=O)(C(C)C)N1CC=C(c2cc(S(=O)(=O)NC3(C#N)CC3)cc3c(-c4nnc(C(F)F)s4)nn(C)c23)CC1 (stereo not shown) [Compound 40] | 0.3 | 0.261 | 0.454 | < 1 |  |  | 
CC(C)S(=O)(=O)N1CC=C(c2cc(S(=O)(=O)NC3(C#N)CC3)cc3c(-c4nnc(C(F)F)s4)n(CC4CC4)nc23)CC1 [Compound 44] | 1.05 | 1.07 |  |  |  |  | 
CC(C)[S+]([O-])c1ccc(-c2cc(S(=O)(=O)NC3(C#N)CC3)cc3c(-c4nnc(C(F)(F)F)s4)nn(C)c23)nc1 (stereo not shown) [Compound 48] | 2.04 | 2.05 |  | 10 to 100 |  |  | 
CC(C)S(=O)(=O)N1CC=C(c2cc(S(=O)(=O)NC3(C#N)CC3)cc3c(-c4nnc(C(F)(F)F)s4)nn(Cc4ccncc4)c23)CC1 [Compound 59] |  |  |  | 1 to 10 |  | 0.357 | 0.27
CC(C)S(=O)(=O)N1CC=C(c2cc(S(=O)(=O)NC3(C#N)CC3)cc3c(-c4nnc(C(F)(F)F)s4)nn(CC4CNC4)c23)CC1 [Compound 61] | 1.63 |  | 1.68 | < 1 |  |  | 
CC(C)S(=O)(=O)N1CC=C(c2cc(S(=O)(=O)NC3(C#N)CC3)cc3c(-c4nnc(C(F)F)s4)nn(C)c23)C(F)C1 (stereo not shown) [Compound 69] | 0.296 | 0.292 |  | < 1 |  |  | 
CC(C)S(=O)(=O)N1CCC(c2cc(S(=O)(=O)NC3(C#N)CC3)cc3c(-c4nnc(C(F)F)s4)nn(C)c23)=C(C=O)C1 [Compound 70] | 0.27 |  | 0.343 | < 1 |  |  | 
CC(C)S(=O)(=O)N1CCC(c2cc(S(=O)(=O)NC3(C#N)CC3)cc3c(-c4nnc(C(F)F)s4)nn(C)c23)=C(CN(C)C)C1 [Compound 71] | 0.308 |  | 0.342 | < 1 |  |  | 
CC(C)S(=O)(=O)N1CCC(c2cc(S(=O)(=O)NC3(C#N)CC3)cc3c(-c4nnc(C(F)(F)F)s4)nn(C)c23)=C(CO)C1 [Compound 73] | 0.0462 |  | 0.0576 | < 1 |  |  | 
CC(C)S(=O)(=O)N1CCC(c2cc(S(=O)(=O)NC3(C#N)CC3)cc3c(-c4nnc(C(F)(F)F)s4)nn(C)c23)=C(CN(C)C)C1 [Compound 74] | 0.156 |  | 0.0621 | 1 to 10 |  |  | 
